Measurements from US8486960B2, “Formulations and methods for vascular permeability-related diseases or conditions” (Santen Pharmaceutical Co., Ltd., priority 2006, dated 2013).

Test: Rapamycin levels in hamster cheek tissue homogenate by LC/MS
Format: in vivo, golden Syrian hamsters
Conditions: for Rapamycin assayed concentration, Average: hamster cheek pouch, all samples
Text: Upon sacrifice of the animals, samples of both of the Hamster cheeks were obtained and frozen at −80 degrees Celsius. The samples were labeled as to the amount of intraperitoneal dose received, and whether they were right (studied with chamber) or left.

average tissue level of rapamycin in the hamster cheek pouch (0.1 mg/kg treatment group): 7.37 ng/g
average tissue level of rapamycin in the hamster cheek pouch (0.5 mg/kg treatment group): 11.01 ng/g
average tissue level of rapamycin in the hamster cheek pouch (2.0 mg/kg treatment group): 40.83 ng/g
average tissue level of rapamycin in the hamster cheek pouch (10 mg/kg treatment group): 55.15 ng/g
Rapamycin assayed concentration, Average (dosing 0.1 mg/kg ip): 7.37 ng/g or pg/mg
Rapamycin assayed concentration, Average (dosing 0.5 mg/kg ip): 11.01 ng/g or pg/mg
Rapamycin assayed concentration, Average (dosing 2 mg/kg ip): 40.83 ng/g or pg/mg
Rapamycin assayed concentration, Average (dosing 10 mg/kg ip): 55.15 ng/g or pg/mg
Compound: CO[C@H]1C[C@@H]2CC[C@@H](C)[C@@](O)(O2)C(=O)C(=O)N2CCCC[C@H]2C(=O)O[C@H]([C@H](C)C[C@@H]2CC[C@@H](O)[C@H](OC)C2)CC(=O)[C@H](C)/C=C(\C)[C@@H](O)[C@@H](OC)C(=O)[C@H](C)C[C@H](C)/C=C/C=C/C=C/1C [rapamycin]
